The source of these data is patent publication US8383641B2, “Aryloxyethylamine compounds suitable for treating disorders that respond to modulation of the dopamine D3 receptor” (Abbott GmbH & Co. KG, priority 2006, dated 2013).

Structures can show the parent of a compound that is named as a salt. Where only a bound is given, the exact number is not on record here.

The target of test [1] is T1, human dopamine D3 receptors (Homo sapiens, UniProt P35462).
T1 construct: expressed in transfected cells; host or cells: HEK-293
Put plainly: Dopamine D3 receptor binding, [125I]-iodosulpride displacement. The note with it: membranes of HEK-293 cells expressing human D3 receptor; 0.1 nM [125I]-iodosulpride. How it is done: (§1) The substance to be tested was either dissolved in methanol/Chremophor® (BASF-AG) or in dimethyl sulfoxide and then diluted with water to the desired concentration.
(§2) Each assay mixture was run in triplicate.
The incubation buffer contained 50 mM tris, 120 mM NaCl, 5 mM KCl, 2 mM CaCl2, 2 mM MgCl2 and 0.1% bovine serum albumin, 10 μM quinolone and 0.1% ascorbic acid (prepared fresh daily). The buffer was adjusted to pH 7.4 with HCl.
(§3) After having been incubated at 25° C. for 60 minutes, the assay mixtures were filtered through a Whatman GF/B glass fiber filter under vacuum using a cell collecting device. The filters were transferred to scintillation viols using a filter transfer system. After 4 ml of Ultima Gold® (Packard) have been added, the samples were shaken for one hour and the radioactivity was then counted in a Beta-Counter (Packard, Tricarb 2000 or 2200CA). The cpm values were converted into dpm using a standard quench series and the program belonging to the instrument.
(§4) The inhibition curves were analyzed by means of iterative nonlinear regression analysis using the Statistical Analysis System (SAS) which is similar to the “LIGAND” program described by Munson and Rodbard.

Test [2] has as its target T2, human dopamine D2L receptors (long isoform) (Homo sapiens, UniProt P14416).
T2 construct: expressed in transfected cells; host or cells: HEK-293
Nature of the test: Dopamine D2L receptor binding, [125I] iodospiperone displacement. The note with it: selectivity ratio of receptor binding constants, D2L versus D3. The protocol: as §1, §2
The incubation buffer contained 50 mM tris, 120 mM NaCl, 5 mM KCl, 2 mM CaCl2, 2 mM MgCl2 and 0.1% bovine serum albumin. The buffer was adjusted to pH 7.4 with HCl.
as §3, §4

T2 sequence (P14416 whole entry, canonical isoform): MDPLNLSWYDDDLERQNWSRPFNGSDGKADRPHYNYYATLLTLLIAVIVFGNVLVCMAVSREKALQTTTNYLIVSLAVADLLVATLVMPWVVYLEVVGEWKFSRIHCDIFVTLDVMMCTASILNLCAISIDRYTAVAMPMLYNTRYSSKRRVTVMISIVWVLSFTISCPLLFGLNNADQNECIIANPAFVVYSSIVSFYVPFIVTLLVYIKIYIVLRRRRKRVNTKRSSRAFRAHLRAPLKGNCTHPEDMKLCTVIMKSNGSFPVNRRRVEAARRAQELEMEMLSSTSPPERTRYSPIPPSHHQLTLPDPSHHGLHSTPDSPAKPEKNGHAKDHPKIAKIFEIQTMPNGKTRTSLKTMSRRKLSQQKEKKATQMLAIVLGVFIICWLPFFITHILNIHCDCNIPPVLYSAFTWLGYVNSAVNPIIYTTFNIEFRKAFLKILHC
T1 sequence (P35462 whole entry): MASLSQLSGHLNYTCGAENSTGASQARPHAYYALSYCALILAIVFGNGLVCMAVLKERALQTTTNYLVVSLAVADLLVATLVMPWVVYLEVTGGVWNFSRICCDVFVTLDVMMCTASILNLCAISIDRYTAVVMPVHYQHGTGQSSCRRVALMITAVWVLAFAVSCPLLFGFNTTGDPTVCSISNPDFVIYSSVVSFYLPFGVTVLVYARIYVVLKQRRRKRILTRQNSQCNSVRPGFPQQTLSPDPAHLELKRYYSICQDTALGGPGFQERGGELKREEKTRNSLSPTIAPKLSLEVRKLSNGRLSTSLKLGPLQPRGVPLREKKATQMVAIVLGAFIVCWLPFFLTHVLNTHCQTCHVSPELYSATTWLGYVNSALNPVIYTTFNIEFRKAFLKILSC

A word on the Ki: it is a measure of affinity in units of concentration, obtained from inhibition or displacement. Compound `CCCNCCOc1ccc(NS(=O)(=O)c2ccc([C@@H](C)CF)cc2)c(C)n1` [Example 34, 4-((R)-2-Fluoro-1-methyl-ethyl)-N-[2-methyl-6-(2-propylamino-ethoxy)-pyridin-3-yl]-benzenesulfonamide×HCl] yielded a Ki in test [1] of 1 to 10 nM. For the same compound, the “Ki(D2)*/Ki(D3)*” value in test [2] is reported as “++++ (>150)”.
The corresponding values for `CCCNCCOc1ccc(NS(=O)(=O)c2ccc(-c3cnco3)cc2)c(OC)n1` [Example 7, N-[2-Methoxy-6-(2-propylamino-ethoxy)-pyridin-3-yl]-4-oxazol-5-yl-benzenesulfonamide×HCl] are under 1 nM and “++++ (>150)”.
